Assay results from ChEMBL document CHEMBL4304797, “Discovery of GSK2798745: A Clinical Candidate for Inhibition of Transient Receptor Potential Vanilloid 4 (TRPV4)” (ACS Med Chem Lett, 2019).

Columns and labels:
[1] = Lipophilicity, chromatographic logD of compound at pH 7.4; conditions: buffer
[2] = target: Transient receptor potential cation channel subfamily V member 4 (Homo sapiens, UniProt Q9HBA0); assay: Inhibition of human TRPV4 expressed in baculovirus infected HEK/MSR 2 cells pre-incubated for 10 mins followed by GSK634775A addition by Fura-2 dye based FLIPR assay
[3] = Clearance in Sprague-Dawley rat at 1 mg/kg, iv measured after 24 hrs by HPLC-MS/MS analysis; format: ADME, organism-based; conditions: in vivo
[4] = Unbound volume of distribution at steady state in Sprague-Dawley rat; format: ADME; conditions: in vivo
[5] = Unbound fraction in Sprague-Dawley rat plasma; format: ADME, cell-free
[6] = Unbound clearance in Sprague-Dawley rat; format: ADME; conditions: in vivo
[7] = Mean residence time in Sprague-Dawley rat at 1 mg/kg, iv measured after 24 hrs by HPLC-MS/MS analysis; format: ADME, organism-based; conditions: in vivo
[8] = Oral bioavailability in Sprague-Dawley rat at 2 mg/kg measured after 24 hrs by HPLC-MS/MS analysis; format: ADME, organism-based; conditions: in vivo
[9] = Volume of distribution at steady state in Sprague-Dawley rat at 1 mg/kg, iv measured after 24 hrs by HPLC-MS/MS analysis; format: ADME, organism-based; conditions: in vivo, read-out: Vdss
[10] = target: Transient receptor potential cation channel subfamily V member 4 (Rattus norvegicus, UniProt Q9ERZ8); assay: Inhibition of rat TRPV4 expressed in baculovirus infected HEK/MSR 2 cells pre-incubated for 10 mins followed by GSK634775A addition by Fura-2 dye based FLIPR assay
Chain of Transient receptor potential cation channel subfamily V member 4 (Rattus norvegicus, UniProt Q9ERZ8) (Q9ERZ8 whole entry): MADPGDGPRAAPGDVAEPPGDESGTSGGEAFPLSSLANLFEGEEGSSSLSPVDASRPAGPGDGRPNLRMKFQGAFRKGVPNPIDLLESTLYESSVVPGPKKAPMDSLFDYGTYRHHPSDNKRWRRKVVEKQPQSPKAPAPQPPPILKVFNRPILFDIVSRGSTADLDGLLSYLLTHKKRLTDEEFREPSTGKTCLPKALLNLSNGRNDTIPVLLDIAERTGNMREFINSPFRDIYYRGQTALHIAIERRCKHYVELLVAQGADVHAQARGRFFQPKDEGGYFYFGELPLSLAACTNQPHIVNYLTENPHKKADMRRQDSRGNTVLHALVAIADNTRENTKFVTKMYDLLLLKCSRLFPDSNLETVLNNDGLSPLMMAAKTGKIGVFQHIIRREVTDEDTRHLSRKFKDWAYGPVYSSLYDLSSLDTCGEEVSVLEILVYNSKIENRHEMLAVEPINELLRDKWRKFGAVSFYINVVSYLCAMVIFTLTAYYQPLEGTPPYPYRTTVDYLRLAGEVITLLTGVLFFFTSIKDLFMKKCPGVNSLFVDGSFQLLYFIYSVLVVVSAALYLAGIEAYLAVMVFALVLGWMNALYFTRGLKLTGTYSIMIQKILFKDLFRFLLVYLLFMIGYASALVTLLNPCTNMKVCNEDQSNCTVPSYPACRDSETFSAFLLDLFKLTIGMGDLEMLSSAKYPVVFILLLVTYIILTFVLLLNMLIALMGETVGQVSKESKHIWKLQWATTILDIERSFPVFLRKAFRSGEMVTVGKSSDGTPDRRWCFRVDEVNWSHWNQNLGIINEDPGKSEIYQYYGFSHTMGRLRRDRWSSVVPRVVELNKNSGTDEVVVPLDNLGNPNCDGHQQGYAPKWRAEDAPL

Chain of Transient receptor potential cation channel subfamily V member 4 (Homo sapiens, UniProt Q9HBA0) (Q9HBA0 whole entry): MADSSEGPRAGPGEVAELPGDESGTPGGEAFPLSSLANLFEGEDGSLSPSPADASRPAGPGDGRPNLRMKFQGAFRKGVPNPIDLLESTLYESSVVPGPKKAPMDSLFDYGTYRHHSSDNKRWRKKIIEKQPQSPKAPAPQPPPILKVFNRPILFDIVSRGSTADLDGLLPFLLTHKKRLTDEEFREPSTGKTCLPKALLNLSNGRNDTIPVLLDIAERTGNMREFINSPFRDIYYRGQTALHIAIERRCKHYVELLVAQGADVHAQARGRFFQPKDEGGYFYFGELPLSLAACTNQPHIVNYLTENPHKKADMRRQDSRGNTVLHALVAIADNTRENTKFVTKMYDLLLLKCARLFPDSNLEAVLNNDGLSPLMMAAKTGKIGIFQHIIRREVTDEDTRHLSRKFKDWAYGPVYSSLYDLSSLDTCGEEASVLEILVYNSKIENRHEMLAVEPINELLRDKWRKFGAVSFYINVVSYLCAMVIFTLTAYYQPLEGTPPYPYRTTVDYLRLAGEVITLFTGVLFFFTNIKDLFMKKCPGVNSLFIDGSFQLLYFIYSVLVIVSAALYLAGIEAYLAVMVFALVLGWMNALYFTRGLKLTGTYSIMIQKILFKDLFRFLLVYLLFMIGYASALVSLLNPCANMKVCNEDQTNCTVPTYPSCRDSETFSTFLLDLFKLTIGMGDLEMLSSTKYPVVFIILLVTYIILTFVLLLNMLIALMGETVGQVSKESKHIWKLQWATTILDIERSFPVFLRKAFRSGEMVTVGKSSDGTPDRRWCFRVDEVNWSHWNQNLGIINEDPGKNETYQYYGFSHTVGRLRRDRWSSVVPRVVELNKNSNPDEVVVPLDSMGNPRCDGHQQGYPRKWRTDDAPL

Cc1ccccc1N1C[C@@]2(CCC[C@H](Cn3cnc4ccc(C#N)cc43)C2)OC1=O
ChromLogD [1]: 4.6 | IC50 [2]: 310 nM

N#Cc1ccc2ncn(C[C@H]3CCC[C@]4(C3)CN(c3ccc(F)cc3)C(=O)O4)c2c1 (racemic)
clearance [3]: 23 mL/min/kg | ChromLogD [1]: 4.5 | Vduss [4]: 61 L/kg | fraction unbound [5]: 0.065 | CL free [6]: 350 mL/min/kg | MRT [7]: 3.1 h | IC50 [2]: 1900 nM | bioavailability [8]: 100% | Vd [9]: 4 L/kg

CCOc1cccc(N2C[C@@]3(CCC[C@H](Cn4cnc5ccc(C#N)cc54)C3)OC2=O)c1
ChromLogD [1]: 5 | IC50 [2]: 74 nM

COc1cnc(N2C[C@@]3(CCC[C@](C)(Cn4cnc5ccc(C#N)cc54)C3)OC2=O)cn1
ChromLogD [1]: 4.8 | CL free [6]: 400 mL/min/kg | IC50 [2]: 14 nM

COc1ccccc1N1C[C@@]2(CCC[C@H](Cn3cnc4ccc(C#N)cc43)C2)OC1=O
ChromLogD [1]: 4.2 | IC50 [2]: 340 nM

CCOc1cnc(N2C[C@@]3(CCC[C@](C)(Cn4cnc5ccc(C#N)cc54)C3)OC2=O)cn1
clearance [3]: 17 mL/min/kg | ChromLogD [1]: 5.5 | fraction unbound [5]: 0.037 | CL free [6]: 460 mL/min/kg | MRT [7]: 5.2 h | IC50 [2]: 4.2 nM | bioavailability [8]: 100% | Vd [9]: 5.4 L/kg

C[C@]1(Cn2cnc3ccc(C#N)cc32)CCC[C@@]2(CN(c3cccc(Cl)c3)C(=O)O2)C1
ChromLogD [1]: 5.7 | IC50 [2]: 48 nM

CC(C)(C)N1C[C@@]2(CCC[C@H](Cn3cnc4ccc(C#N)cc43)C2)OC1=O (racemic)
clearance [3]: 55 mL/min/kg | ChromLogD [1]: 4 | MRT [7]: 0.5 h | IC50 [2]: 5200 nM | bioavailability [8]: 44% | Vd [9]: 1.8 L/kg

CCOc1ccc(N2C[C@@]3(CCC[C@H](Cn4cnc5ccc(C#N)cc54)C3)OC2=O)cc1
ChromLogD [1]: 4.8 | IC50 [2]: 140 nM

N#Cc1ccc2ncn(C[C@H]3CCC[C@]4(C3)CN(c3ccccc3F)C(=O)O4)c2c1
ChromLogD [1]: 4.2 | IC50 [2]: 540 nM

Cc1cnc(N2C[C@@]3(CCC[C@](C)(Cn4cnc5ccc(C#N)cc54)C3)OC2=O)cn1
ChromLogD [1]: 4.2 | IC50 [2]: 60 nM

CCOc1cccc(N2C[C@@]3(CCC[C@](C)(Cn4cnc5ccc(C#N)cc54)C3)OC2=O)c1
ChromLogD [1]: 5.3 | IC50 [2]: 1.6 nM

N#Cc1ccc2ncn(C[C@H]3CCC[C@]4(C3)CN(c3cccc(Cl)c3)C(=O)O4)c2c1
ChromLogD [1]: 5.3 | IC50 [2]: 240 nM

CCOc1ccc(N2C[C@@]3(CCC[C@](C)(Cn4cnc5ccc(C#N)cc54)C3)OC2=O)cn1
clearance [3]: 24 mL/min/kg | fraction unbound [5]: 0.031 | MRT [7]: 1.6 h | IC50 [2]: 3.1 nM

CC(C)(C)CN1C[C@@]2(CCC[C@H](Cn3cnc4ccc(C#N)cc43)C2)OC1=O
clearance [3]: 64 mL/min/kg | ChromLogD [1]: 4.5 | IC50 [10]: 5.5 nM | Vduss [4]: 8.1 L/kg | fraction unbound [5]: 0.32 | CL free [6]: 200 mL/min/kg | MRT [7]: 0.7 h | IC50 [2]: 16 nM | bioavailability [8]: 63% | Vd [9]: 2.6 L/kg

C[C@]1(Cn2cnc3ccc(C#N)cc32)CCC[C@@]2(CN(c3ccc(F)cc3)C(=O)O2)C1
clearance [3]: 39 mL/min/kg | ChromLogD [1]: 4.9 | MRT [7]: 2.8 h | IC50 [2]: 96 nM | bioavailability [8]: 100% | Vd [9]: 6.5 L/kg

C[C@]1(Cn2cnc3ccc(C#N)cc32)CCC[C@@]2(CN(c3ccccc3F)C(=O)O2)C1
ChromLogD [1]: 4.9 | IC50 [2]: 5.2 nM

CC(C)(C)CN1C[C@@]2(CCC[C@](C)(Cn3cnc4ccc(C#N)cc43)C2)OC1=O
clearance [3]: 63 mL/min/kg | ChromLogD [1]: 4.6 | fraction unbound [5]: 0.14 | CL free [6]: 450 mL/min/kg | MRT [7]: 0.5 h | IC50 [2]: 0.5 nM | bioavailability [8]: 32% | Vd [9]: 2.1 L/kg

CCOc1ccc(N2C[C@@]3(CCC[C@](C)(Cn4cnc5ccc(C#N)cc54)C3)OC2=O)cc1
clearance [3]: 140 mL/min/kg | ChromLogD [1]: 5.4 | MRT [7]: 0.9 h | IC50 [2]: 5.2 nM | bioavailability [8]: 29% | Vd [9]: 7.2 L/kg

CC(C)(C)CN1C[C@@]2(CCC[C@H](C(C)(C)n3cnc4ccc(C#N)cc43)C2)OC1=O (racemic)
clearance [3]: 70 mL/min/kg | ChromLogD [1]: 4.6 | MRT [7]: 0.3 h | IC50 [2]: > 25000 nM | bioavailability [8]: 8% | Vd [9]: 1.1 L/kg

C[C@]1(Cn2cnc3ccc(C#N)cc32)CCC[C@@]2(CN(c3ccccc3)C(=O)O2)C1
IC50 [2]: 49 nM

N#Cc1ccc2ncn(C[C@H]3CCC[C@]4(C3)CN(c3ccccc3)C(=O)O4)c2c1
ChromLogD [1]: 4.6 | IC50 [2]: 820 nM

CCOc1ccc(N2C[C@@]3(CCC[C@](C)(Cn4cnc5ccc(C#N)cc54)C3)OC2=O)nn1
clearance [3]: 14 mL/min/kg | MRT [7]: 1.9 h | IC50 [2]: 60 nM

CC(C)(C)c1cnc(N2C[C@@]3(CCC[C@](C)(Cn4cnc5ccc(C#N)cc54)C3)OC2=O)cn1
ChromLogD [1]: 6.3 | IC50 [2]: 1.2 nM

Cc1ccccc1N1C[C@@]2(CCC[C@](C)(Cn3cnc4ccc(C#N)cc43)C2)OC1=O
ChromLogD [1]: 4.8 | IC50 [2]: 1.7 nM

C[C@]1(Cn2cnc3ccc(C#N)cc32)CCC[C@@]2(CN(c3cnc(C4CC4)cn3)C(=O)O2)C1
ChromLogD [1]: 5.3 | CL free [6]: 340 mL/min/kg | IC50 [2]: 1.5 nM

CC(C)(O)c1cnc(N2C[C@@]3(CCC[C@](C)(Cn4cnc5ccc(C#N)cc54)C3)OC2=O)cn1 [GSK2798745]
clearance [3]: 6.5 mL/min/kg | ChromLogD [1]: 4 | IC50 [10]: 1.6 nM | fraction unbound [5]: 0.082 | CL free [6]: 79 mL/min/kg | MRT [7]: 4.9 h | IC50 [2]: 1.8 nM | bioavailability [8]: 59% | Vd [9]: 1.9 L/kg

COc1ccccc1N1C[C@@]2(CCC[C@](C)(Cn3cnc4ccc(C#N)cc43)C2)OC1=O
clearance [3]: 26 mL/min/kg | ChromLogD [1]: 4.6 | fraction unbound [5]: 0.036 | CL free [6]: 720 mL/min/kg | MRT [7]: 1 h | IC50 [2]: 1.2 nM | bioavailability [8]: 100% | Vd [9]: 1.4 L/kg

N#Cc1ccc2ncn(C[C@H]3CCC[C@]4(C3)CN(c3ccccc3Cl)C(=O)O4)c2c1
ChromLogD [1]: 4.3 | IC50 [2]: 63 nM

C[C@]1(Cn2cnc3ccc(C#N)cc32)CCC[C@@]2(CN(c3ccccc3Cl)C(=O)O2)C1
ChromLogD [1]: 4.8 | IC50 [2]: 2.5 nM
